Reference: patent US9492471B2, “Methods of treating a disease or disorder associated with Bruton'S Tyrosine Kinase” (Celgene Avilomics Research, Inc., priority 2013, dated 2016)
Like-named read-outs stand apart in the source and are kept apart here.

Columns and labels:
Assay in all cases: HotSpot kinase profiling
Format in all cases: biochemical
MRCKb/CDC42BPB = target: T1, MRCKb/CDC42BPB (Homo sapiens, UniProt Q9Y5S2)
T1 construct: purchased Reaction Biology Corp
In short: (§1)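 Radiometric kinase assay with P81 filter capture; each kinase was added to fresh substrate plus cofactors in reaction buffer and incubated 2 h at room temperature. Unreacted phosphate was washed off with 0.1% phosphoric acid before detection; percent inhibition is relative to DMSO control, averaged over replicates.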

PHKg2 = target: T2, PHKg2 (Homo sapiens, UniProt P15735)
T2 construct: purchased Reaction Biology Corp
T2 sequence (P15735 1-406): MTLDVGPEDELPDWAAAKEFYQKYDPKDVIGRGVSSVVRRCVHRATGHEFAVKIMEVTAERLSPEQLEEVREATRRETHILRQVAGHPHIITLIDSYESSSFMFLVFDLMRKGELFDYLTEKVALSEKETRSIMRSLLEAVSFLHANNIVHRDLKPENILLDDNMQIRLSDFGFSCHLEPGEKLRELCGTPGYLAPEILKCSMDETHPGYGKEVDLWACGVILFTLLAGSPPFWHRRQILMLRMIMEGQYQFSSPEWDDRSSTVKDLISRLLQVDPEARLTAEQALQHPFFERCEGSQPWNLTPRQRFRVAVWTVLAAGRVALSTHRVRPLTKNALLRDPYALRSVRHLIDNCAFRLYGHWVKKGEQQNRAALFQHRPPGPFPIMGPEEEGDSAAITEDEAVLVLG
In short: as §1

IKKe/IKBKE = target: T3, IKKe/IKBKE (Homo sapiens, UniProt Q14164)
T3 construct: purchased Reaction Biology Corp
T3 sequence (Q14164 1-716): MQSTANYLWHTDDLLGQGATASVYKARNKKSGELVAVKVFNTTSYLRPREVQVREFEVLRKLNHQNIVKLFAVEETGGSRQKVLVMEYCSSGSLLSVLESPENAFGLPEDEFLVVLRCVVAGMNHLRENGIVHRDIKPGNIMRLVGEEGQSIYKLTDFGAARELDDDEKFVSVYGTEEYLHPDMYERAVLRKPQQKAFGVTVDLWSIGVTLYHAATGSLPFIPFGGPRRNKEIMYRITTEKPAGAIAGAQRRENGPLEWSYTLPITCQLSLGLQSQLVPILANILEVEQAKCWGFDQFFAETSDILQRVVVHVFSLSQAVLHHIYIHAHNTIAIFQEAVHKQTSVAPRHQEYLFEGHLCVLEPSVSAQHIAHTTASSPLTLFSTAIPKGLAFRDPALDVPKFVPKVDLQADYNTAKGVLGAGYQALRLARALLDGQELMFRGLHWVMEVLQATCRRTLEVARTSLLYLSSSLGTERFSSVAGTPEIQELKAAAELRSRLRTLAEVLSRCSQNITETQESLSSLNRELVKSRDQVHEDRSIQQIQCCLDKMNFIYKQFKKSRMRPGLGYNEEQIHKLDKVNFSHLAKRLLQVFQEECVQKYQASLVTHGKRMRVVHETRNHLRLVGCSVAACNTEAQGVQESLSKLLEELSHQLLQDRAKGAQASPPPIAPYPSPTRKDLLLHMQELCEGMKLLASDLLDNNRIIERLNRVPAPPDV
In short: as §1

CDK4/cyclin D1 = target: T4, CDK4/cyclin D1 (Homo sapiens, UniProt P11802)
T4 construct: purchased Reaction Biology Corp
T4 sequence (P11802 whole entry): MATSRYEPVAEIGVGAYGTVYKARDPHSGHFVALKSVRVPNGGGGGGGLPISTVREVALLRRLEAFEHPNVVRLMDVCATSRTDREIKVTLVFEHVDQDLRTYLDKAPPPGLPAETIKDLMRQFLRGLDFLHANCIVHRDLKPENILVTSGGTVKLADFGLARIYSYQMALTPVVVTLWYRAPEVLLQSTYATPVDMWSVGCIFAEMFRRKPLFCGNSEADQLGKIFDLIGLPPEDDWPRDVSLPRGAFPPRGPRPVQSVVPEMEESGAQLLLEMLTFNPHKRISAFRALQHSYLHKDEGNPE
T4 sequence (P24385 whole entry partner): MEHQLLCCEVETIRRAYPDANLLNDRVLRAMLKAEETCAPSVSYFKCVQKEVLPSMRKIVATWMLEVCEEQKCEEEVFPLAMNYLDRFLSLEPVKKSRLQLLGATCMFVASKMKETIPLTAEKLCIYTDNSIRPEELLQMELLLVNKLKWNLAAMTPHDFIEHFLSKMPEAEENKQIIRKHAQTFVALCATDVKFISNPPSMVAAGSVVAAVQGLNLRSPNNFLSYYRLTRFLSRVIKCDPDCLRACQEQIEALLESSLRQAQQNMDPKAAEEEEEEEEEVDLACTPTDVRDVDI
In short: as §1

GRK3 = target: T5, GRK3 (Homo sapiens, UniProt P35626)
T5 construct: purchased Reaction Biology Corp
T5 sequence (P35626 1-688): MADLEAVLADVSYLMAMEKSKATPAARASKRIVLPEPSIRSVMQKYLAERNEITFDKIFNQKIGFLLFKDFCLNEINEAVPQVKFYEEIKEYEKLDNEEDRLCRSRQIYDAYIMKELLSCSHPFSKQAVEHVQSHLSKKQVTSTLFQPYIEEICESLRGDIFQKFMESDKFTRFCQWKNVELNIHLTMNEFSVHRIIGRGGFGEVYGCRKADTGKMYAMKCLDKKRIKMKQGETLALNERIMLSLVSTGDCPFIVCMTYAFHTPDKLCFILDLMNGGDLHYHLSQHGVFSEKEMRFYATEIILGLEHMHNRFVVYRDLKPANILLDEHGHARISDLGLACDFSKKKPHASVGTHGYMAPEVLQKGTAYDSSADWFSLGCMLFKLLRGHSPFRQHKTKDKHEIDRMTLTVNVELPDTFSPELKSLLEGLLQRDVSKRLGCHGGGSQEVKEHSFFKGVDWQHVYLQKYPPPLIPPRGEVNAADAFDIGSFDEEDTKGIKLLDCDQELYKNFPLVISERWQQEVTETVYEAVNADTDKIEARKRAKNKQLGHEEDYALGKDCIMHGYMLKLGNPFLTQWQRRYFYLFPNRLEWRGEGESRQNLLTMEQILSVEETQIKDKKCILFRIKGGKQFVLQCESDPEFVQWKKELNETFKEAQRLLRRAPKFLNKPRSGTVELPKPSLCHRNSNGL
In short: as §1

CK2a = target: T6, CK2a (Homo sapiens, UniProt P68400)
T6 construct: purchased Reaction Biology Corp
T6 sequence (P68400 whole entry): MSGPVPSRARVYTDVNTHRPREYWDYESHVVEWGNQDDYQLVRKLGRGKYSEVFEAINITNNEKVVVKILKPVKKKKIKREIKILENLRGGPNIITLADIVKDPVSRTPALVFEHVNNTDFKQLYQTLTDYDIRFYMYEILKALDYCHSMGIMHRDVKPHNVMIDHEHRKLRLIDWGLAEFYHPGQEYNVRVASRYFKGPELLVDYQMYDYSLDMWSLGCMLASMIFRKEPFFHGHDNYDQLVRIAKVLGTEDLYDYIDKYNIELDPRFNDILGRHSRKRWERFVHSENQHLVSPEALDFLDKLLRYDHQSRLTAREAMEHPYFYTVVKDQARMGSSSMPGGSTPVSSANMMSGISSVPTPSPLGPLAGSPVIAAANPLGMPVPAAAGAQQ
In short: as §1

[1] = read-out: % Enzyme Activity (relative to DMSO controls) Run 1
[2] = read-out: % Enzyme Activity (relative to DMSO controls) Run 2

T1 sequence (Q9Y5S2 whole entry): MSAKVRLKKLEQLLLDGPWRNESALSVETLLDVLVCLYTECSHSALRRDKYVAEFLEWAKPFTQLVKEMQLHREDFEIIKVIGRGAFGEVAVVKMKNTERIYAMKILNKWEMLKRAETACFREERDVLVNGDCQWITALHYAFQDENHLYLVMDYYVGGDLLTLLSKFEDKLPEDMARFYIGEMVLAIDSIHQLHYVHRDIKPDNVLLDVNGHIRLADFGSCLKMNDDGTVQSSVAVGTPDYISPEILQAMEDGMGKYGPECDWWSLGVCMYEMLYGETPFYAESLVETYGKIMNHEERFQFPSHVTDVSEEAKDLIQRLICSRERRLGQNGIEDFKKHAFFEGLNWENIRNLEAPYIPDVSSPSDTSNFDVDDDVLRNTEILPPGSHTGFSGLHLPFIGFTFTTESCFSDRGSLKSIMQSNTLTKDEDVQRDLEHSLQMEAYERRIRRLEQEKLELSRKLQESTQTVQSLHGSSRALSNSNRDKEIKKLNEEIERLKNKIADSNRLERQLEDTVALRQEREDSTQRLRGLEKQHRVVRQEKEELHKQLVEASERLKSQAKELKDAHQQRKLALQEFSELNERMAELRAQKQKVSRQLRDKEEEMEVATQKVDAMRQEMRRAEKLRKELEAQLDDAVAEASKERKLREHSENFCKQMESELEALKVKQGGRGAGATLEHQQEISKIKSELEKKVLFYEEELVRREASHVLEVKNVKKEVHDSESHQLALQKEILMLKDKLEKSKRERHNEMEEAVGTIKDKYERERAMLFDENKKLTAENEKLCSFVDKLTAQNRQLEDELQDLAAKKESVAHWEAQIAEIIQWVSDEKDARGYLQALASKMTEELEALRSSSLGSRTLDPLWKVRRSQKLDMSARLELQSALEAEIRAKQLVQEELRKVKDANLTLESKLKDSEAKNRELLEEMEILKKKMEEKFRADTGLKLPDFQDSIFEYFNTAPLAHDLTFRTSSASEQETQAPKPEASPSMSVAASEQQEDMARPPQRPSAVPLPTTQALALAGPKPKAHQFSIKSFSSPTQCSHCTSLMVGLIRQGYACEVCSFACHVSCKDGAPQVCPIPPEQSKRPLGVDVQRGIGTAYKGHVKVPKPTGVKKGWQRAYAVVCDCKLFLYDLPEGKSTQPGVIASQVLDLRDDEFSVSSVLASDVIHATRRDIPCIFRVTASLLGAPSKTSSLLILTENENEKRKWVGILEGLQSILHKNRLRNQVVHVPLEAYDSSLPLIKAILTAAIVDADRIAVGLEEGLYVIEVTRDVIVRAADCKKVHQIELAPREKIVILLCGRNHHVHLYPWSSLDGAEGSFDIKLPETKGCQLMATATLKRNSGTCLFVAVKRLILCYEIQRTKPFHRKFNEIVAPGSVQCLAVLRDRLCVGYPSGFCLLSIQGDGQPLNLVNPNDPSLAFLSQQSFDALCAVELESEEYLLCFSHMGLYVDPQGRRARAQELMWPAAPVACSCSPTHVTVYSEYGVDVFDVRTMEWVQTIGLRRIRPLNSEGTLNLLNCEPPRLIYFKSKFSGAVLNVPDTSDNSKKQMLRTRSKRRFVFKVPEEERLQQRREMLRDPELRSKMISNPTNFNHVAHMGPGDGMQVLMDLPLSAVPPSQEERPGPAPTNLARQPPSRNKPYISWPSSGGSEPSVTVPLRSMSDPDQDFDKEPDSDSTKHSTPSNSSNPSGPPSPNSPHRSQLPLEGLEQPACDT

## C=CC(=O)Nc1cccc(Nc2nc(Nc3ccc(OCCOC)c(F)c3)ncc2F)c1 [Compound 2]
MRCKb/CDC42BPB
  inhibition at 3 µM: -6.12%
MRCKb/CDC42BPB; [1]
  remaining activity at 3 µM: 107%
MRCKb/CDC42BPB; [2]
  remaining activity at 3 µM: 105%
PHKg2
  inhibition at 3 µM: -14.7%
PHKg2; [1]
  remaining activity at 3 µM: 118%
PHKg2; [2]
  remaining activity at 3 µM: 112%
IKKe/IKBKE
  inhibition at 3 µM: 21.8%
IKKe/IKBKE; [1]
  remaining activity at 3 µM: 78.3%
IKKe/IKBKE; [2]
  remaining activity at 3 µM: 78.2%
CDK4/cyclin D1
  inhibition at 3 µM: 4.07%
CDK4/cyclin D1; [1]
  remaining activity at 3 µM: 95.6%
CDK4/cyclin D1; [2]
  remaining activity at 3 µM: 96.3%
GRK3
  inhibition at 3 µM: -0.2%
GRK3; [1]
  remaining activity at 3 µM: 99.5%
GRK3; [2]
  remaining activity at 3 µM: 101%
CK2a
  inhibition at 3 µM: -20.1%
CK2a; [1]
  remaining activity at 3 µM: 117%
CK2a; [2]
  remaining activity at 3 µM: 123%
